Measurements reported in PMC6254361, “The properties of Msh2–Msh6 ATP binding mutants suggest a signal amplification mechanism in DNA mismatch repair” (The Journal of Biological Chemistry, 2018).

Target: T1, Msh2–Msh6 (Saccharomyces cerevisiae, UniProt P25847+Q03834, Q03834:K988A)
T1 sequence (P25847 1-964): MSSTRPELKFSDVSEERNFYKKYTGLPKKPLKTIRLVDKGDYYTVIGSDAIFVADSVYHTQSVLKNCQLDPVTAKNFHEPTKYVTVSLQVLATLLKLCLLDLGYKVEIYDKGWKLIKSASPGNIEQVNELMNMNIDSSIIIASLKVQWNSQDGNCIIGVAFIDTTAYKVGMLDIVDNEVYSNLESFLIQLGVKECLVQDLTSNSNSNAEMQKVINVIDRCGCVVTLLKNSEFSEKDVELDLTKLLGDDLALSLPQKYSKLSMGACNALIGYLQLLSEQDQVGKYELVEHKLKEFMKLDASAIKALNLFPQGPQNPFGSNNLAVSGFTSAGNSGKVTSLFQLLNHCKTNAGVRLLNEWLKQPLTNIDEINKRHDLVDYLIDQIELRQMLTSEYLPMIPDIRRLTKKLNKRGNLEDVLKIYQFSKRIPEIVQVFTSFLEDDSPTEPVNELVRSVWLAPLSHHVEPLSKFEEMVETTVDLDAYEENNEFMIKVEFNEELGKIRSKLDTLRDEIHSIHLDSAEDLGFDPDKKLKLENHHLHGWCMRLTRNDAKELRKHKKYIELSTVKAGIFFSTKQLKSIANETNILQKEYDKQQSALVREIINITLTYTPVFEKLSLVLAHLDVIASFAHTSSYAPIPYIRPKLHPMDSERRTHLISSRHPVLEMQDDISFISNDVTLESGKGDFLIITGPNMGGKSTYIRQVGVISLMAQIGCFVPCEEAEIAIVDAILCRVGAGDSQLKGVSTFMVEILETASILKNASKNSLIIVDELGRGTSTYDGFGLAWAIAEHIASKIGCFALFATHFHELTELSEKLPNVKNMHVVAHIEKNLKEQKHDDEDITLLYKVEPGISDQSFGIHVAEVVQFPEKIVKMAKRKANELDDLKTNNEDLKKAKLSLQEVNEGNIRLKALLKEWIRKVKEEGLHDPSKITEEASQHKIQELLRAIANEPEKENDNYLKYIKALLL
T1 sequence (Q03834 1-1242 K988A): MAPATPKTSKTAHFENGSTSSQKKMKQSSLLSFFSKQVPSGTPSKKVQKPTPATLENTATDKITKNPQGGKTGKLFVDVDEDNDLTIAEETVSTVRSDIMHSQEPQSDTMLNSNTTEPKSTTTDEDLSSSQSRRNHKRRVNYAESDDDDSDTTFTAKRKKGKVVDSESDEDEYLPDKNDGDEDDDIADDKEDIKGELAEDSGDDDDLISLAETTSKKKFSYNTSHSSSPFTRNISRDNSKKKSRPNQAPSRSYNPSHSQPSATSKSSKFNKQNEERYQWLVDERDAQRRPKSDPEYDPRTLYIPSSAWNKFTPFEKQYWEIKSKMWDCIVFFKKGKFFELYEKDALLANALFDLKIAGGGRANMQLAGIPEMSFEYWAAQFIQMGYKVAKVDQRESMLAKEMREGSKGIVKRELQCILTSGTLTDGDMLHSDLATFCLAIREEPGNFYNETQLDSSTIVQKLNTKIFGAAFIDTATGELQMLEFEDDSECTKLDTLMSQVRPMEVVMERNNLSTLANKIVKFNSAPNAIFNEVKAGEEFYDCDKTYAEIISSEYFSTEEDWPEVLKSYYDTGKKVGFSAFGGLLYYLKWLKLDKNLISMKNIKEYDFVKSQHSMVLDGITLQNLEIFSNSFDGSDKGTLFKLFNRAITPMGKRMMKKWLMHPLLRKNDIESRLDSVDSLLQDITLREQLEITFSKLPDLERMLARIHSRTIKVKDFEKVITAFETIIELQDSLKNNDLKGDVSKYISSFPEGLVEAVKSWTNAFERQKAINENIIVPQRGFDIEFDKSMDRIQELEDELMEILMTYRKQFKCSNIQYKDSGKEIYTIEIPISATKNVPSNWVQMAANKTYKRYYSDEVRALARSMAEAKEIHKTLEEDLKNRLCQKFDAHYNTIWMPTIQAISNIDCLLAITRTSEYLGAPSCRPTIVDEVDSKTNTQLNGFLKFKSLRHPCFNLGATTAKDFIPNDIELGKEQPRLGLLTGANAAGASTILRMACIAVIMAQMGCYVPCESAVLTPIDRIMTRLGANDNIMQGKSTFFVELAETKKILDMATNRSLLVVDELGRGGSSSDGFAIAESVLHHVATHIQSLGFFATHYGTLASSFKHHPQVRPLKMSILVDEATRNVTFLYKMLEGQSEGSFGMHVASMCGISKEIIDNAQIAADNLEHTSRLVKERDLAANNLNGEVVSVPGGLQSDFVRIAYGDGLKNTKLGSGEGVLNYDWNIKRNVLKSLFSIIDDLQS
Assay: UV cross-linking of [γ-32P]ATP, SDS-PAGE, phosphorimaging
Format: binding
Conditions: labelled compound; no Mg2+, EDTA, pH 8, on ice; Msh2 site at 60 μM ATP, Msh6 site at 1 μM ATP

## Nc1ncnc2c1ncn2[C@@H]1O[C@H](COP(=O)(O)OP(=O)(O)OP(=O)(O)O)[C@@H](O)[C@H]1O [ATP]
  relative ATP binding: Msh2–Msh6(K988A) and Msh2–Msh6(K988R) mutant complexes had partial ATP binding defects at the Msh2 subunit
